Source: paper PMC10149367, “The ferroptosis inducing compounds RSL3 and ML162 are not direct inhibitors of GPX4 but of TXNRD1” (Redox Biology, 2023)

Legend:
TXNRD1 [1] = biological target: T1, TXNRD1 (Homo sapiens, UniProt Q16881); test: TXNRD1 activity assay, pure enzyme (Fig. 1A); format: biochemical
T1 construct: made in house
T1 sequence (Q16881 1-499 isoform Q16881-5): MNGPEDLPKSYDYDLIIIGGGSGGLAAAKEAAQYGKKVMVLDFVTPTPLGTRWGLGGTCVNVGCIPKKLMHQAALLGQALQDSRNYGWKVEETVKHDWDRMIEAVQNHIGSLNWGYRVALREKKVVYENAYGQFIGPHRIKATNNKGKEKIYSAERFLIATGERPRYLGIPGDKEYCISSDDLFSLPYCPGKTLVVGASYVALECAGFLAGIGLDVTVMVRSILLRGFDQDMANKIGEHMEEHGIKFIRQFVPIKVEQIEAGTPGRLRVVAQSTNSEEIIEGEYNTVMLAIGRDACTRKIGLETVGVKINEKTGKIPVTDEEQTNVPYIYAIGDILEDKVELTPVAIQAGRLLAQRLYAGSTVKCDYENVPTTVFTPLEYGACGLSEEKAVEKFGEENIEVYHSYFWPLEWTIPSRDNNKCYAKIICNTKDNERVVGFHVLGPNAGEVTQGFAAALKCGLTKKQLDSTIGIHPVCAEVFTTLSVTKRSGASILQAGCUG
Experimental: Recombinant human proteins—Recombinant human selenoprotein GPX and TXNRD isoenzymes as well as recombinant human GR were cloned, expressed, and purified as described previously [[26], [27], [28]].
TXNRD1 selenite and DTNB assays were run as previously described [[26], [27], [28]]. Dose-response curves and IC50s were generated using Excel and GraphPad Prism. Briefly, initial slopes of NADPH consumption were normalized to DMSO controls and IC50s were calculated using log(inhibitor) vs. response—Variable slope (four parameters).

[2] = system: malondialdehyde (MDA) and Ptgs2 mRNA levels; set-up: method as in PMID 32732975; conditions: C57BL/6 mice; rescued with Fer-1; cited from earlier work
GPX4 [3] = biological target: T2, GPX4 (Homo sapiens, UniProt P36969); test: GPX4 immunoblot of treated A549 cells; format: cell-based; conditions: A549, 3 μM, 24 h
T2 construct: We thus performed immunoblot analyses for GPX4 in A549 cells; endogenous in cells; host or cells: A549
T2 sequence (P36969 1-197): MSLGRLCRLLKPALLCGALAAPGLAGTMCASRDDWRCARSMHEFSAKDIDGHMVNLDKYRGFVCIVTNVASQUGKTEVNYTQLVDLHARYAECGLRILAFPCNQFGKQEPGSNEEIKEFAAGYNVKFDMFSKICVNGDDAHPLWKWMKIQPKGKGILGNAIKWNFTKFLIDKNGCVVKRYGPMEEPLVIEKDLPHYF
Experimental: Western blots—A549 and H1975 cells cultured for at least 72 h in the presence of 100 nM Na2SeO3 (Sigma) were seeded in 90 mm dishes (VWR) at 1 × 10^6 cells per dish for 18 h prior to main treatments. Four hours after seeding dishes, cells were pretreated with 2 μM Fer-1 for 14 h prior to adding RSL3, when indicated. After 14 h, main treatments with TRi-1, TRi-2, RSL3, ML162, ML210 or 0.03% v/v DMSO in doses indicated in each figure were added for 6 or 24 h. Total DMSO content was 0.05%. Cells were then scraped, washed in PBS, and suspended in 150–200 μL lysis buffer containing 50 mM Tris-HCl (pH 7.5), 2 mM EDTA, 0.15 M NaCl, 1% Triton X-100, and cOmplete protease inhibitor cocktail (Roche). Supernatants were collected after 30 s of sonication, and 30 min centrifugation at 17000×g, and protein concentration was measured using Pierce bicinchoninic acid (BCA) protein assay kit (Thermo Fischer Scientific). […] Chemiluminescent signal was detected using anti-rabbit and anti-mouse HRP-IgG secondary antibodies (Southern Biotech, 4030–05, LOT A2718-MM00 and 1030–05, LOT L3919-XE81B respectively) and ECL detection reagent (Cytiva Amersham). Protein quantification based on band densitometry was performed in Quantity One and Image Lab (BioRad).

A549 cells [4] = test: A549 viability in cellular TXNRD1 (RX1) experiments; conditions: A549, 4 h, Extended Data Fig. 3A
Experimental: Cellular TXNRD1 assay—20,000 or 10,000 A549 cells (for 4 h or 12 h and 24 h compound incubation respectively) were seeded in 96-well plates (microplates, 96 well, F-bottom, black, clear bottom, ViewPlateTM-96 F TC, PerkinElmer), in a total volume of 100 μL full DMEM (supplemented with 10% FBS and 100 nM Na2SeO3). The cells were incubated for 16 h at 37 °C and 5% CO2, followed by media change and addition of indicated compounds at respective concentrations (0.1 μM–20 μM), including 0.6% DMSO. The cells were subsequently incubated for the respective mentioned time, washed once with full DMEM and fresh, full DMEM, containing 75 μM RX1 and 0.75% DMSO, was added and the first fluorescent measurement was conducted immediately (timepoint = 0) using a Tecan Infinite M200 plate reader (ex/em 355/520). To follow the kinetic activation of RX1, a fluorescent measurement was done every hour for 6 h. Between measurements, cells were stored at 37 °C and 5% CO2. As a control, cells treated with compounds, but not with RX1, just the respective DMSO content, were used for background fluorescent. To determine how the cells were viable throughout the RX1 assay, the control cells were used for a viability measurement, using CellTiter-Glo® Luminescent Cell Viability Assay, after the final fluorescent measurement. For final data analysis, raw data was processed using Microsoft Excel and GraphPad Prism. In brief, the slope of the activated RX1 fluorescence increase was in each case calculated and normalized, using the viability measurement of the control cells.
Extended Data Figure 3: A549 cytotoxicity in cellular TXNRD1 experiments following final
A) Cell viability following 4-hour incubation with
compounds; B) Viability following 12-hour incubation with compounds; C) Viability
following 24 -hour incubation with compounds. The cell viability in was in each case measured
using the Cell Quanti-BlueTM Cell Viability Assay Kit and the data are presented as mean ±
s.d. of n = 3 biological replicates, each containing n = 3 technical replicates.

TXNRD1 [5] = biological target: T3, TXNRD1 (Homo sapiens, UniProt Q16881); test: Cellular TXNRD1 assay with RX1 probe in A549 cells; format: cell-based; conditions: A549, 4 h incubation; RSL3 and ML162 at 1 μM or higher
T3 construct: RX1 probe that specifically reports upon TXNRD1 enzymatic activity in live cells; endogenous in cells; host or cells: A549
T3 sequence (Q16881 151-649 limits assumed): T1 sequence (Q16881 1-499 isoform Q16881-5)
Experimental: Cellular TXNRD1 assay—20,000 or 10,000 A549 cells (for 4 h or 12 h and 24 h compound incubation respectively) were seeded in 96-well plates (microplates, 96 well, F-bottom, black, clear bottom, ViewPlateTM-96 F TC, PerkinElmer), in a total volume of 100 μL full DMEM (supplemented with 10% FBS and 100 nM Na2SeO3). […] The cells were subsequently incubated for the respective mentioned time, washed once with full DMEM and fresh, full DMEM, containing 75 μM RX1 and 0.75% DMSO, was added and the first fluorescent measurement was conducted immediately (timepoint = 0) using a Tecan Infinite M200 plate reader (ex/em 355/520). To follow the kinetic activation of RX1, a fluorescent measurement was done every hour for 6 h. Between measurements, cells were stored at 37 °C and 5% CO2. As a control, cells treated with compounds, but not with RX1, just the respective DMSO content, were used for background fluorescent. To determine how the cells were viable throughout the RX1 assay, the control cells were used for a viability measurement, using CellTiter-Glo® Luminescent Cell Viability Assay, after the final fluorescent measurement. For final data analysis, raw data was processed using Microsoft Excel and GraphPad Prism. In brief, the slope of the activated RX1 fluorescence increase was in each case calculated and normalized, using the viability measurement of the control cells.

TXNRD1 [6] = biological target: T1, TXNRD1; test: nano differential scanning fluorimetry, TXNRD1; format: binding; conditions: 100 μM compound
Experimental: Nano differential scanning fluorimetry—Real-time monitoring of fluorescence emission at 330 nm and 350 nm (excitation wavelength: 280 nm) and backscattering absorbance of GPX4 and TXNRD1 samples in the presence of compound was performed using a NanoTemper Prometheus NT.48 instrument. […] Standard capillaries were used, and temperature was increased from 25 to 95 °C with a ramp rate of 4.0 °C/min. Three biological replicates were carried out for each condition, and their means and standard deviations are depicted.

A549 cells [7] = test: Cytotoxicity assay, A549 cells; format: cell-based, human
Experimental: Cell culture—H1975 and A549 cells were cultured in RPMI-1640 medium (HyClone) with Earle's salts supplemented and penicillin/streptomycin (100 μg/ml), while HT1080 cells were cultured in MEM medium for Fig. 2 experiments. For all other cellular experiments, A549 cells were cultured in DMEM 4.5 g/L glucose medium (Gibco), and H1975 cells in RPMI-1640 ATCC Modification (Gibco). Cell cultures were maintained at 37 °C in 5% CO2 in a medium containing 10% fetal bovine serum (FBS) (GE Healthcare, A15-102 for Fig. 2 experiments and Sigma, F7524 for all others). Experiments were performed with or without supplementation with 100 nM sodium selenite as described.
Cytotoxicity assays— Cells were seeded in a 96-well plate at the density of 3 × 10^3 per well and allowed to adhere overnight. After which, cells were treated with various concentrations of compound for the indicated times, whereupon cell viability was determined using Cell Quanti-Blue™ Cell Viability Assay Kits (Nordic Diagnostica, CQBL-10K). Briefly, QUANTI-Blue Reagent (10 μL) was added to each well, incubated at 37 °C in 5% CO2 for 3 h, and then the plates were measured at 540nm/600 nm (Ex/Em) using the Tecan Microplate Reader (Morrisville NC, USA).

[8] = set-up: method as in PMID 29444979; conditions: given at high doses to mice; cited from earlier work
GPX4 [9] = system: GPX4; set-up: method as in PMID 34788728; conditions: cited from earlier work

COc1ccc([N+](=O)[O-])c(S(=O)(=O)c2ccc(Cl)cc2)n1 [TRi-1]
Specificity among GPX1, GPX4, GR and TXNRD1 (TXNRD1 [1]; pure enzyme systems, Fig. 1A lower panels): specific inhibitors of TXNRD1 | IC50 (TXNRD1 [1]; recombinant TXNRD1, Fig. 1A assay conditions, read-out: IC50 TXNRD1 inhibition): ~0.5 µM | MDA and Ptgs2 levels [2]: increase MDA and Ptgs2 levels | GPX4 expression levels compared to DMSO controls (immunoblot) (GPX4 [3]): no obvious changes in its expression levels | Effect on cell viability at 4 h (A549 cells [4]): no overt effects on viability | Effect on cellular TXNRD1 activity (RX1) at 4 h (TXNRD1 [5]): effectively inhibit cellular TXNRD1 activity | Thermal stabilization of TXNRD1 (TXNRD1 [6]): displaying thermal stabilization of the enzyme | IC50 (A549 cells [7]; 24 h, media not supplemented with selenium): ~20 µM | Effect of ferrostatin-1 or MitoTEMPO co-treatment on cytotoxicity (A549 cells [7]; A549, 24 h, no selenium supplementation): co-treatment with neither ferrostatin-1 nor MitoTEMPO had any effect | Cell viability (A549 cells [7]; A549, 24 h, under all tested conditions (with/without Se, blockers)): about 40% | Difference in response profiles between cell lines (A549 cells [7]; A549, H1975 and HT1080, 24 h): no stark difference in response profiles | Antitumoral effect in mice [8]: antitumoral properties | Toxicity to mice [8]: lack overt toxicity | Effect on GPX4 thermostability (GPX4 [9]): no major effect
